Test results taken from patent publication US20240066003A1, “NEURODEVELOPMENTAL DISORDER THERAPY” (Anavex Life Sciences Corp., priority 2016, published 2024).

Assays:
[1] = test system: muscarinic acetylcholine receptors; conditions: believed to bind; cited from earlier work
sigma-1 receptors = sigma-1 receptors (Homo sapiens, UniProt Q99720); conditions: believed to bind; cited from earlier work
[2] = test system: heterozygous MECP2knockout mice (HET); test: Rotarod; type: in vivo
Procedure: Studies employed wild type (WT) mice and heterozygous MECP2knockout mice (HET) All mice were provided by Jackson Laboratory, Bar Harbor, Maine. HET mice were Bird mice (Jackson Laboratories, Bar Harbor, ME, B6.129P2(C)-Mecp2^tm1.1Bird/Stock Number: 003890) were obtained by crossing het females with wild type (WT) males (C57B/6J). […] Mecp2 females testing at ˜8 and ˜12 weeks of age WT—vehicle (0.25% MC/dH2O) HET—vehicle (0.25% MC/dH2O) HET—A2-733 (10 mg/kg) HET—A2-733 (30 mg/kg) Chronic dosing (p.o.) daily, starting at ˜5.5 weeks of age and continuing through the 12-week behavioral testing time point 60 min pre-treatment during behavioral testing. The rotarod performance test is a performance test based on a rotating rod with forced motor activity being applied, usually by a rodent. The test measures parameters such as riding time (seconds) or endurance. Some of the functions of the test include evaluating balance, grip strength, and motor coordination of the subjects; especially in testing the effect of experimental drugs or after traumatic brain injury. Mice are placed on the rotarod apparatus (PsychoGenics, Tarrytown New York) consisting of a rod that rotates at a constant or variable and accelerating speed of 4 rpm. Once a mouse loses its balance and falls onto an underlying platform the timer automatically stops. Mice are exposed to the apparatus for 5 min training at a constant speed and placed back on the rod after each fall. After a rest period of at least 1 hr. animals are placed back on the rotarod apparatus for testing. Once all animals in a test session are loaded on the rod, the rotarod apparatus is placed on accelerating speed (0-40 rpm) over 5 min and the time until the first fall is recorded. The test is repeated three consecutive times per animal. For each test session, the RPM score at time of fall off the rod are recorded.

Smith—Magenis syndrome = test: Example 7 sleep in Smith-Magenis syndrome patient; type: in vivo, human; conditions: person, oral 10 mg/day, after 15 days
Procedure: A person presents with Smith—Magenis syndrome. They experience disturbed sleep. They begin treatment with oral doses of A2-73 at 10 mg/day.

[3] = test system: amyloid β25-35 peptide (Aβ25-35) injected mice; conditions: cited from earlier work
Rett syndrome = test: Example 3 seizure reduction in Rett syndrome patient; type: in vivo, human; conditions: oral 2 mg daily, after 5 days, 6 to 10 seizures per day before therapy
Procedure: A person presents with Rett syndrome. They experience 6 to 10 seizures per day prior to commencing therapy. They begin treatment with oral doses of A2-73 at 2 mg daily. After 5 days of treatment, the number of daily seizures is reduced to 3 or fewer.

[4] = test system: heterozygous MECP2knockout mice (HET); test: Clasping of hind legs; type: in vivo; conditions: 8 weeks of age; 30 mg/kg p.o. daily
Procedure: Studies employed wild type (WT) mice and heterozygous MECP2knockout mice (HET) All mice were provided by Jackson Laboratory, Bar Harbor, Maine. HET mice were Bird mice (Jackson Laboratories, Bar Harbor, ME, B6.129P2(C)-Mecp2^tm1.1Bird/Stock Number: 003890) were obtained by crossing het females with wild type (WT) males (C57B/6J). […] Mecp2 females testing at ˜8 and ˜12 weeks of age WT—vehicle (0.25% MC/dH2O) HET—vehicle (0.25% MC/dH2O) HET—A2-733 (10 mg/kg) HET—A2-733 (30 mg/kg) Chronic dosing (p.o.) daily, starting at ˜5.5 weeks of age and continuing through the 12-week behavioral testing time point 60 min pre-treatment during behavioral testing. Mice are lifted gently by the tail with front limbs remaining on surface. Clasping of hind legs is noted (normal is a spread in the hind legs).

[5] = test system: heterozygous MECP2knockout mice (HET); test: NeuroCube gait analysis; type: in vivo
Procedure: Studies employed wild type (WT) mice and heterozygous MECP2knockout mice (HET) All mice were provided by Jackson Laboratory, Bar Harbor, Maine. HET mice were Bird mice (Jackson Laboratories, Bar Harbor, ME, B6.129P2(C)-Mecp2^tm1.1Bird/Stock Number: 003890) were obtained by crossing het females with wild type (WT) males (C57B/6J). […] Mecp2 females testing at ˜8 and ˜12 weeks of age WT—vehicle (0.25% MC/dH2O) HET—vehicle (0.25% MC/dH2O) HET—A2-733 (10 mg/kg) HET—A2-733 (30 mg/kg) Chronic dosing (p.o.) daily, starting at ˜5.5 weeks of age and continuing through the 12-week behavioral testing time point 60 min pre-treatment during behavioral testing. Neurological testing via a platform that employs computer vision to detect changes in gait geometry and gait dynamics in rodent models of neurological disorders, pain, and neuropathies. Complex bio-informatics algorithms similar to those used in SmartCube® are employed to detect a disease phenotype and screen compounds. (NeuroCube, PsychoGenics, Tarrytown NY) A platform that employs computer vision to detect changes in gait geometry and gait dynamics in rodent models of neurological disorders, pain, and neuropathies. Mice are allowed to walk in the chamber for 5 min. When the paw touches the screen, LED light reflects creating bright spots. Images are captured and processed using proprietary computer vision and bio-informatics data mining algorithms.

[6] = 8 weeks of age, 10 and 30 mg/kg p.o. daily, HET mice
[7] = 12 weeks of age, both doses (10 and 30 mg/kg p.o. daily)

sigma-1 receptors, sequence (Q99720 whole entry): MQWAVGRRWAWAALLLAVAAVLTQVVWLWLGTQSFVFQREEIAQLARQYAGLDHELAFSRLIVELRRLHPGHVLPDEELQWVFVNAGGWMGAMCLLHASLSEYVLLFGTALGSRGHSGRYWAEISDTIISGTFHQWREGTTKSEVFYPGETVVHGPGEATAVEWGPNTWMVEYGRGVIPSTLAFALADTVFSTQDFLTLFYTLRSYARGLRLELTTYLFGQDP

CN(C)CC1CCOC1(c1ccccc1)c1ccccc1.Cl (stereo not shown) [A2-73, tetrahydro-N,N-dimethyl-2,2-diphenyl-3-furanmethanamine hydrochloride]
affinity for muscarinic acetylcholine receptors [1]: low micromolar range
affinity for sigma-1 receptors (sigma-1 receptors): low micromolar range
rotarod speed at fall, treatment effect [2, 6]: No significant treatment effects
rotarod time to fall, treatment effect [2, 6]: No significant treatment effects
rotarod speed at fall vs vehicle-treated mutant mice [2, 7]: fell at higher speeds
rotarod time to fall vs vehicle-treated mutant mice [2, 7]: took more time to fall off the rod
rotarod speed at fall, without outliers ([2]; 12 weeks of age, higher dose (30 mg/kg), outliers removed): effect at the higher dose disappeared
sleep (Smith—Magenis syndrome): markedly less disturbed
Aβ25-35-induced P-Akt decrease and P-GSK-3β increase ([3]; Lahmy et al. 2013): blocked
hyperphosphorylation of Tau on physiological (AT-8) and pathological (AT-100) epitopes ([3]; in the dose-range tested): attenuated
oxidative stress, caspases induction, cellular loss and learning and memory deficits ([3]; mice one week after the i.v. injection of oligomeric Aβ25-35 (Villard et al. 2011)): attenuating
Aβ25-35-induced endogenous Aβ1-42 seeding ([3]; mouse, in vivo): decreasing
number of daily seizures (Rett syndrome): ≤ 3
clasping vs vehicle-treated mutant mice [4]: clasped less
NeuroCube GAIT, Het vehicle v. Het AV2-73 ([5]; 8 week, 10 mg/kg, p > 0.09): 63, p > 0.09
NeuroCube Body Motion, Het vehicle v. Het AV2-73 ([5]; 8 week, 10 mg/kg, p > 0.20): 60, p > 0.20
NeuroCube Correlation, Het vehicle v. Het AV2-73 ([5]; 8 week, 10 mg/kg, p > 0.40): 56, p > 0.40
NeuroCube Paw Positioning, Het vehicle v. Het AV2-73 ([5]; 8 week, 10 mg/kg, p > 0.57): 53, p > 0.57
NeuroCube Overall, Het vehicle v. Het AV2-73 ([5]; 8 week, 10 mg/kg, p > 0.69): 53, p > 0.69
NeuroCube Paw Features, Het vehicle v. Het AV2-73 ([5]; 8 week, 10 mg/kg, p > 0.78): 52, p > 0.78
NeuroCube Body Motion, Het vehicle v. Het AV2-73 ([5]; 8 week, 30 mg/kg, p < 0.003): 81, p < 0.003
NeuroCube Correlation, Het vehicle v. Het AV2-73 ([5]; 8 week, 30 mg/kg, p < 0.005): 76, p < 0.005
NeuroCube GAIT, Het vehicle v. Het AV2-73 ([5]; 8 week, 30 mg/kg, p < 0.05): 69, p < 0.05
NeuroCube Overall, Het vehicle v. Het AV2-73 ([5]; 8 week, 30 mg/kg, p > 0.24): 62, p > 0.24
NeuroCube Paw Positioning, Het vehicle v. Het AV2-73 ([5]; 8 week, 30 mg/kg, p > 0.36): 57, p > 0.36
NeuroCube Paw Features, Het vehicle v. Het AV2-73 ([5]; 8 week, 30 mg/kg, p > 0.56): 55, p > 0.56
NeuroCube separation versus Het vehicle ([5]; 8 weeks of age): no separation
recovery of the overall signature ([5]; 8 weeks of age, NeuroCube): 9-17%
NeuroCube GAIT, Het vehicle v. Het AV2-73 ([5]; 12 week, 10 mg/kg, p > 0.29): 57, p > 0.29
NeuroCube Paw Features, Het vehicle v. Het AV2-73 ([5]; 12 week, 10 mg/kg, p > 0.35): 56, p > 0.35
NeuroCube Paw Positioning, Het vehicle v. Het AV2-73 ([5]; 12 week, 10 mg/kg, p > 0.57): 53, p > 0.57
NeuroCube Correlation, Het vehicle v. Het AV2-73 ([5]; 12 week, 10 mg/kg, p > 0.70): 53, p > 0.70
NeuroCube Overall, Het vehicle v. Het AV2-73 ([5]; 12 week, 10 mg/kg, p > 0.70): 53, p > 0.70
NeuroCube Body Motion, Het vehicle v. Het AV2-73 ([5]; 12 week, 10 mg/kg, p > 0.71): 52, p > 0.71
NeuroCube Correlation, Het vehicle v. Het AV2-73 ([5]; 12 week, 30 mg/kg, p < 0.03): 69, p < 0.03
NeuroCube Body Motion, Het vehicle v. Het AV2-73 ([5]; 12 week, 30 mg/kg, p < 0.04): 68, p < 0.04
NeuroCube Overall, Het vehicle v. Het AV2-73 ([5]; 12 week, 30 mg/kg, p > 0.21): 61, p > 0.21
NeuroCube GAIT, Het vehicle v. Het AV2-73 ([5]; 12 week, 30 mg/kg, p > 0.37): 57, p > 0.37
NeuroCube Paw Positioning, Het vehicle v. Het AV2-73 ([5]; 12 week, 30 mg/kg, p > 0.62): 53, p > 0.62
NeuroCube Paw Features, Het vehicle v. Het AV2-73 ([5]; 12 week, 30 mg/kg, p > 0.65): 53, p > 0.65
